According to patent US10792282B2, “Protein kinase C inhibitors and uses thereof” (Rigel Pharmaceuticals, Inc., priority 2013, dated 2020):
Where two headings read alike, the source gives them in different places.

System: PKC mediated IL-2 production
Test: IL-2 ELISA, human primary T cell, anti CD3+CD28+ (whole cell functional assay)
Format: cell-based
Outline: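 Anti-CD3/CD28-expanded human primary T cells (100,000/well), pre-incubated 1 h at 37° C with compound, then stimulated on plates coated with 1 μg/ml αCD3 and 5 μg/ml αCD28. Counter assay used 0.5 ng/ml PMA plus 0.1 μM ionomycin (final). Supernatant IL-2 measured by ELISA after 24 h.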

[1] = Homo sapiens, T-cell, 24 h, IL-2 production, human primary T cells stimulated with αCD3 and αCD28, 24 hours, IL-2 by ELISA, read-out: EC50
[2] = Homo sapiens, T-cell, human primary T cells stimulated with αCD3 and αCD28, IL-2 by ELISA, read-out: EC50 (blocked IL-2 production)
[3] = IL-2 production, human primary T cells stimulated with αCD3 and αCD28, 24 hours, IL-2 by ELISA, read-out: EC50
[4] = T-cell, human primary T cells stimulated with αCD3 and αCD28, IL-2 by ELISA, read-out: EC50 (blocked IL-2 production)
[5] = T-cell, IL-2 production, human primary T cells stimulated with αCD3 and αCD28, 24 hours, IL-2 by ELISA, read-out: EC50

Cn1nnn(-c2cc(Nc3ncc(F)c(N[C@H]4C[C@@H]5C[C@@H](F)CN5C(C)(C)C4)n3)c(F)cc2C2CC2)c1=O [Compound 65, 1-(5-(4-((2R,7S,8aR)-2-fluoro-octahydro-5,5-dimethylindolizin-7-ylamino)-5-fluoropyrimidin-2-ylamino)-2-cyclopropyl-4-fluorophenyl)-4-methyl-1H-tetrazol-5(4H)-one]
EC50 [1]: < 10 µM | EC50 [2]: < 10 µM

Cn1nnn(-c2cc(Nc3ncc(C#N)c(NC4CC5CCCN5C(C)(C)C4)n3)c(F)cc2C2CC2)c1=O (centres unmarked) [Compound 66, 4-((R/S,S/R)-Octahydro-5,5-dimethylindolizin-7-ylamino)-2-(4-cyclopropyl-2-fluoro-5-(4,5-dihydro-4-methyl-5-oxotetrazol-yl)phenylamino) pyrimidine-5-carbonitrile]
EC50 [3]: < 0.1 µM

Cn1nnn(-c2cc(Nc3ncc(F)c(N[C@@H]4C[C@@H]5C[C@H](F)CN5C(C)(C)C4)n3)c(F)cc2C2CC2)c1=O [Compound 67, 1-(5-(4-((2S,7R,8aR)-2-fluoro-octahydro-5,5-dimethylindolizin-7-ylamino)-5-fluoropyrimidin-2-ylamino)-2-cyclopropyl-4-fluorophenyl)-4-methyl-1H-tetrazol-5(4H)-one]
EC50 [1]: < 0.5 µM | EC50 [2]: < 10 µM

Cn1nnn(-c2cc(Nc3ncc(F)c(N[C@@H]4C[C@@H]5C[C@@H](O)CN5C(C)(C)C4)n3)c(F)cc2C2CC2)c1=O [Compound 68, 1-(5-(4-((2R,7R,8aR)-2-hydroxy-octahydro-5,5-dimethylindolizin-7-ylamino)-5-fluoropyrimidin-2-ylamino)-2-cyclopropyl-4-fluorophenyl)-4-methyl-1H-tetrazol-5(4H)-one]
EC50 [1]: < 0.5 µM | EC50 [2]: < 10 µM

CC1(C)C[C@H](Nc2nc(Nc3cc(S(F)(F)(F)(F)F)ccc3F)ncc2F)C[C@@H]2CCCN21 [Compound 71]
EC50 [1]: < 1 µM | EC50 [2]: < 10 µM

CC(=O)N(C)c1cc(Nc2ncc(F)c(NC3CC(C)(C)N4CCCC4C3C)n2)c(F)cc1C1CC1 (centres unmarked) [Compound 73]
EC50 [3]: < 0.5 µM

CC1C(Nc2nc(Nc3cc(N(C)C(=O)N(C)C)c(C4CC4)cc3F)ncc2F)CC(C)(C)N2CCCC12 (centres unmarked) [Compound 74]
EC50 [3]: < 0.5 µM

CC1C(Nc2nc(Nc3cc(OC(F)F)c(C4CC4)cc3F)ncc2F)CC(C)(C)N2CCCC12 (centres unmarked) [Compound 75]
EC50 [3]: < 0.5 µM

Cn1nnn(-c2cc(Nc3ncc(C#N)c(N[C@@H]4CC5CCCN5C(C)(C)C4)n3)c(F)cc2C2CC2)c1=O (some centres unmarked) [Compound 76]
EC50 [1]: < 0.1 µM | EC50 [2]: < 10 µM

Cn1nnn(-c2cc(Nc3ncc(F)c(N[C@@H]4C[C@@H]5CCCN5C(C)(C)C4)n3)c(F)cc2OCCO)c1=O [Compound 77, 1-(2-(2-hydroxyethoxy)-5-(4-((7R,8aS)-octahydro-5,5-dimethylindolizin-7-ylamino)-5-fluoropyrimidin-2-ylamino)-4-fluorophenyl)-4-methyl-1H-tetrazol-5(4H)-one]
EC50 [4]: < 10 µM

Cn1nnn(-c2cc(Nc3ncc(C#N)c(N[C@@H]4C[C@@H]5CCCN5C(C)(C)C4)n3)c(F)cc2OCCO)c1=O [Compound 78, 4-((7R,8aS)-octahydro-5,5-dimethylindolizin-7-ylamino)-2-(4-(2-hydroxyethoxy)-2-fluoro-5-(4,5-dihydro-4-methyl-5-oxotetrazol-1-yl)phenylamino)pyrimidine-5-carbonitrile]
EC50 [1]: < 0.1 µM | EC50 [2]: < 10 µM

C[C@H](O)COc1cc(F)c(Nc2ncc(C#N)c(N[C@@H]3C[C@@H]4CCCN4C(C)(C)C3)n2)cc1-n1nnn(C)c1=O [Compound 79, 4-((7R,8aS)-octahydro-5,5-dimethylindolizin-7-ylamino)-2-(4-((S)-2-hydroxypropoxy)-2-fluoro-5-(4,5-dihydro-4-methyl-5-oxotetrazol-1-yl)phenylamino)pyrimidine-5-carbonitrile]
EC50 [1]: < 0.1 µM | EC50 [2]: < 10 µM

Cn1nnn(-c2cc(Nc3ncc(C#N)c(N[C@@H]4C[C@@H]5CCCN5C(C)(C)C4)n3)c(F)cc2OCC(C)(C)O)c1=O [Compound 80, 4-((7R,8aS)-octahydro-5,5-dimethylindolizin-7-ylamino)-2-(4-(2-hydroxy-2-methylpropoxy)-2-fluoro-5-(4,5-dihydro-4-methyl-5-oxotetrazol-1-yl)phenylamino)pyrimidine-5-carbonitrile]
EC50 [1]: < 0.1 µM | EC50 [2]: < 10 µM

C[C@H](O)COc1cc(F)c(Nc2ncc(F)c(N[C@@H]3C[C@@H]4CCCN4C(C)(C)C3)n2)cc1-n1nnn(C)c1=O [Compound 81, 1-(2-((S)-2-hydroxypropoxy)-5-(4-((7R,8aS)-octahydro-5,5-dimethylindolizin-7-ylamino)-5-fluoropyrimidin-2-ylamino)-4-fluorophenyl)-4-methyl-1H-tetrazol-5(4H)-one]
EC50 [2]: < 10 µM | EC50 [5]: < 0.1 µM

C[C@@H](O)COc1cc(F)c(Nc2ncc(F)c(N[C@@H]3C[C@@H]4CCCN4C(C)(C)C3)n2)cc1-n1nnn(C)c1=O [Compound 82, 1-(5-(4-((7R,8aS)-5,5-dimethyloctahydroindolizin-7-ylamino)-5-fluoropyrimidin-2-ylamino)-4-fluoro-2-((R)-2-hydroxypropoxy)phenyl)-4-methyl-1H-tetrazol-5(4H)-one]
EC50 [5]: < 0.1 µM | EC50 [4]: < 10 µM

Cn1nnn(-c2cc(Nc3ncc(C#N)c(N[C@@H]4C[C@@H]5CCCN5C(C)(C)C4)n3)ccc2OC(C)(C)CO)c1=O [Compound 83, 4-((7R,8aS)-octahydro-5,5-dimethylindolizin-7-ylamino)-2-(4-(1-hydroxy-2-methylpropan-2-yloxy)-3-(4,5-dihydro-4-methyl-5-oxotetrazol-1-yl)phenylamino)pyrimidine-5-carbonitrile]
EC50 [1]: < 0.1 µM | EC50 [2]: < 10 µM

Cn1nnn(-c2cc(Nc3ncc(C#N)c(N[C@@H]4C[C@@H]5CCCN5C(C)(C)C4)n3)c(F)cc2OC(C)(C)CO)c1=O [Compound 84, 4-((7R,8aS)-octahydro-5,5-dimethylindolizin-7-ylamino)-2-(4-(1-hydroxy-2-methylpropan-2-yloxy)-2-fluoro-5-(4,5-dihydro-4-methyl-5-oxotetrazol-1-yl)phenylamino)pyrimidine-5-carbonitrile]
EC50 [1]: < 0.5 µM | EC50 [2]: < 10 µM

Cn1nnn(-c2cc(Nc3ncc(F)c(N[C@@H]4C[C@@H]5CCCN5C(C)(C)C4)n3)c(F)cc2OC(C)(C)CO)c1=O [Compound 85, 1-(2-(1-hydroxy-2-methylpropan-2-yloxy)-5-(4-((7R,8aS)-octahydro-5,5-dimethylindolizin-7-ylamino)-5-fluoropyrimidin-2-ylamino)-4-fluorophenyl)-4-methyl-1H-tetrazol-5(4H)-one]
EC50 [1]: < 0.5 µM | EC50 [2]: < 10 µM

Cn1nnn(-c2cc(Nc3ncc(F)c(N[C@@H]4C[C@@H]5CCCN5C(C)(C)C4)n3)ccc2OC(C)(C)CO)c1=O [Compound 86, 1-(2-(1-hydroxy-2-methylpropan-2-yloxy)-5-(4-((7R,8aS)-octahydro-5,5-dimethylindolizin-7-ylamino)-5-fluoropyrimidin-2-ylamino)phenyl)-4-methyl-1H-tetrazol-5(4H)-one]
EC50 [1]: < 0.1 µM | EC50 [2]: < 10 µM

Cn1nnn(-c2cc(Nc3ncc(F)c(N[C@@H]4C[C@@H]5CCCN5C(C)(C)C4)n3)c(F)cc2OCC(C)(C)O)c1=O [Compound 87, 1-(5-(4-((7R,8aS)-5,5-dimethyloctahydroindolizin-7-ylamino)-5-fluoropyrimidin-2-ylamino)-4-fluoro-2-(2-hydroxy-2-methylpropoxy)phenyl)-4-methyl-1H-tetrazol-5(4H)-one]
EC50 [1]: < 0.1 µM | EC50 [2]: < 10 µM

Cn1nnn(-c2cc(Nc3ncc(F)c(N[C@@H]4C[C@@H]5CCCN5C(C)(C)C4)n3)c(F)cc2OC2COC2)c1=O [Compound 88, 1-(5-(4-((7R,8aS)-octahydro-5,5-dimethylindolizin-7-ylamino)-5-fluoropyrimidin-2-ylamino)-4-fluoro-2-(oxetan-3-yloxy)phenyl)-4-methyl-1H-tetrazol-5(4H)-one]
EC50 [1]: < 0.5 µM | EC50 [2]: < 10 µM

Cn1nnn(-c2cc(Nc3ncc(F)c(N[C@@H]4C[C@@H]5CCCN5C(C)(C)C4)n3)c(F)cc2O)c1=O [Compound 89, 1-(5-(4-((7R,8aS)-octahydro-5,5-dimethylindolizin-7-ylamino)-5-fluoropyrimidin-2-ylamino)-4-fluoro-2-hydroxyphenyl)-4-methyl-1H-tetrazol-5(4H)-one]
EC50 [1]: < 10 µM | EC50 [2]: < 10 µM

C[C@@H](O)COc1cc(F)c(Nc2ncc(C#N)c(N[C@@H]3C[C@@H]4CCCN4C(C)(C)C3)n2)cc1-n1nnn(C)c1=O [Compound 90, 4-((7R,8aS)-octahydro-5,5-dimethylindolizin-7-ylamino)-2-(4-((R)-2-hydroxypropoxy)-2-fluoro-5-(4,5-dihydro-4-methyl-5-oxotetrazol-1-yl)phenylamino)pyrimindine-5-carbonitrile]
EC50 [1]: < 0.1 µM | EC50 [2]: < 10 µM
